This test deals with hTREM2 (Homo sapiens, UniProt Q9NZC2). The experiment in a line: Phospho-Syk AlphaScreen/AlphaLISA assay in TREM2 and DAP12 overexpressing HEK293 cells (Example A1). Type of test: cell-based. The arrangement: expressed in transfected cells. The conditions noted are these: HEK293 cells; for EC50: read-out: hTREM2 EC50. The method in brief:
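Agonism read as Syk phosphorylation: compounds in 1% DMSO applied 45 min at room temperature to TREM2/DAP12-HEK293 cells after 20 h culture. Lysis buffer with phosphatase inhibitors and anti-phospho-Syk plus biotinylated anti-Syk antibodies, then AlphaLISA beads (680 nm excitation); percent of control computed from antibody/isotype wells, curves fitted sigmoidally.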
On the technique in general: Alpha assays give light when donor and acceptor beads are brought close together.

This note sets out measurements from patent publication US20250388574A1, “HETEROCYCLIC COMPOUNDS AS TRIGGERING RECEPTOR EXPRESSED ON MYELOID CELLS 2 AGONISTS AND METHODS OF USE” (AMGEN INC., priority 2020, published 2025).

Bounds are passed on as bounds.

hTREM2, sequence (Q9NZC2 19-230): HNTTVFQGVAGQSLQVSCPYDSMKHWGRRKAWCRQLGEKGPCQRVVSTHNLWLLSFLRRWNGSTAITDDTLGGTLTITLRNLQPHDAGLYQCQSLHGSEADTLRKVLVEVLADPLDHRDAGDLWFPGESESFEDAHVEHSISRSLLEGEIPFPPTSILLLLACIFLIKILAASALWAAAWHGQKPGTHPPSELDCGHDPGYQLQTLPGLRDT
hTREM2, sequence (O43914 22-113 partner): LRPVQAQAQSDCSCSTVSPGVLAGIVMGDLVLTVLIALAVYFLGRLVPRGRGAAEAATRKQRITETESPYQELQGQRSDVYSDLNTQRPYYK

A word on the EC50: it is the concentration giving half of the maximal effect. For the compound `Cc1nc2cc(N3CCO[C@H](c4cnn(C)c4)C3)nc(-c3ccc(Cl)cc3F)c2c(=O)n1C` [Example 2, 5-(4-chloro-2-fluorophenyl)-2,3-dimethyl-7-((2R)-2-(1-methyl-1H-pyrazol-4-yl)-4-morpholinyl)pyrido[4,3-d]pyrimidin-4(3H)-one], the Emax result was “+++ (Emax>200 and ≤300)”; the EC50 fell in the range of 500 to 3000 nM.

Regarding `Cc1nc2cc(N3CCO[C@@H](c4cnn(C)c4)C3)cc(-c3ccc(Cl)cc3F)c2c(=O)n1C` [Example 3, 5-(4-chloro-2-fluorophenyl)-2,3-dimethyl-7-((2S)-2-(1-methyl-1H-pyrazol-4-yl)-4-morpholinyl)-4(3H)-quinazolinone], the Emax result is “+++ (Emax>200 and ≤300)”; the EC50 was < 50 nM. Regarding `Cc1nc2cc(N3CCO[C@H](c4cnn(C)c4)C3)cc(-c3ccc(Cl)cc3F)c2c(=O)n1C` [Example 4, 5-(4-chloro-2-fluorophenyl)-2,3-dimethyl-7-((2R)-2-(1-methyl-1H-pyrazol-4-yl)-4-morpholinyl)-4(3H)-quinazolinone], the Emax entry is “+++ (Emax>200 and ≤300)”; the EC50 was 500 to 3000 nM. Consider `Cc1nc2cc(N3CCO[C@@H](c4cnn(C)c4)C3)nc(-c3ccc(Cl)cc3)c2c(=O)n1C` [Example 5, 5-(4-chlorophenyl)-2,3-dimethyl-7-((2S)-2-(1-methyl-1H-pyrazol-4-yl)-4-morpholinyl)-pyrido[4,3-d]pyrimidin-4(3H)-one], for which the Emax result is recorded as “++++ (Emax>300)” and the EC50 was 50 to 500 nM. Turning to `Cc1nc2cc(N3CCO[C@H](c4cnn(C)c4)C3)nc(-c3ccc(Cl)cc3)c2c(=O)n1C` [Example 6, 5-(4-chlorophenyl)-2,3-dimethyl-7-((2R)-2-(1-methyl-1H-pyrazol-4-yl)-4-morpholinyl)pyrido[4,3-d]pyrimidin-4(3H)-one], the Emax result was “++ (Emax>100 and ≤200)”; the EC50 lay in the range of 500 to 3000 nM.

As to `Cc1nc2cc(N3CCO[C@@H](c4cnn(C)c4)C3)nc(-c3ccc(Cl)c(F)c3)c2c(=O)n1C` [Example 7, 5-(4-chloro-3-fluorophenyl)-2,3-dimethyl-7-((2S)-2-(1-methyl-1H-pyrazol-4-yl)-4-morpholinyl)pyrido[4,3-d]pyrimidin-4(3H)-one], the Emax result is “++++ (Emax>300)” and the EC50 lay within 50 to 500 nM. For `Cc1nc2cc(N3CCO[C@@H](c4cnn(C)c4)C3)nc(-c3ccc(F)cc3F)c2c(=O)n1C` [Example 8, 5-(2,4-difluorophenyl)-2,3-dimethyl-7-((2S)-2-(1-methyl-1H-pyrazol-4-yl)-4-morpholinyl)-pyrido[4,3-d]pyrimidin-4(3H)-one], the Emax result was “++++ (Emax>300)” and the EC50 is 50 to 500 nM. As for `Cc1nc2cc(N3CCO[C@@H](c4cnn(C)c4)C3)nc(-c3ccc(F)c(F)c3F)c2c(=O)n1C` [Example 9, 2,3-dimethyl-7-((2S)-2-(1-methyl-1H-pyrazol-4-yl)-4-morpholinyl)-5-(2,3,4-trifluorophenyl)pyrido[4,3-d]pyrimidin-4(3H)-one], the Emax entry is “+++ (Emax>200 and ≤300)”; the EC50 is 50 to 500 nM.

Regarding `Cc1nc2cc(N3CCO[C@@H](c4cnn(C)c4)C3)nc(-c3cc(F)c(F)cc3F)c2c(=O)n1C` [Example 10, 2,3-dimethyl-7-((2S)-2-(1-methyl-1H-pyrazol-4-yl)-4-morpholinyl)-5-(2,4,5-trifluorophenyl)pyrido[4,3-d]pyrimidin-4(3H)-one], the Emax entry is on record as “++++ (Emax>300)” and the EC50 was 50 to 500 nM.

As for `Cc1nc2cc(N3CCO[C@@H](c4cnn(C)c4)C3)nc(-c3cc(F)c(Cl)cc3F)c2c(=O)n1C` [Example 11, 5-(4-chloro-2,5-difluorophenyl)-2,3-dimethyl-7-((2S)-2-(1-methyl-1H-pyrazol-4-yl)-4-morpholinyl)pyrido[4,3-d]pyrimidin-4(3H)-one], the Emax result is reported as “++++ (Emax>300)” and the EC50 is 50 to 500 nM. Consider `Cc1ccc(-c2nc(N3CCO[C@@H](c4cnn(C)c4)C3)cc3nc(C)n(C)c(=O)c23)c(F)c1` [Example 12, 5-(2-fluoro-4-methylphenyl)-2,3-dimethyl-7-((2S)-2-(1-methyl-1H-pyrazol-4-yl)-4-morpholinyl)pyrido[4,3-d]pyrimidin-4(3H)-one], for which the EC50 lay within 50 to 500 nM. On to `Cc1nc2cc(N3CCO[C@@H](c4cnn(C)c4)C3)nc(-c3ccc(C(F)(F)F)cc3F)c2c(=O)n1C` [Example 13, 5-(2-fluoro-4-(trifluoromethyl)phenyl)-2,3-dimethyl-7-((2S)-2-(1-methyl-1H-pyrazol-4-yl)-4-morpholinyl)pyrido[4,3-d]pyrimidin-4(3H)-one], for which the Emax entry is “++++ (Emax>300)” and the concentration for a half-maximal effect (EC50) was in the range of 50 to 500 nM. On the same counts, the results for `Cc1nc2cc(N3CCO[C@@H](c4cnn(C)c4)C3)nc(-c3ccc(Cl)c(F)c3F)c2c(=O)n1C` [Example 14, 5-(4-chloro-2,3-difluorophenyl)-2,3-dimethyl-7-((2S)-2-(1-methyl-1H-pyrazol-4-yl)-4-morpholinyl) pyrido[4,3-d]pyrimidin-4(3H)-one] are “++++ (Emax>300)” and 50 to 500 nM. With `Cc1nc2cc(N3CCOC(c4cnn(C)c4)C3)cc(-c3ncc(Cl)cc3F)c2c(=O)n1C` (stereo not drawn) [Example 15, 5-(5-chloro-3-fluoro-2-pyridinyl)-2,3-dimethyl-7-(2-(1-methyl-1H-pyrazol-4-yl)-4-morpholinyl)-4(3H)-quinazolinone], the Emax entry is reported as “++++ (Emax>300)” and the EC50 is 500 to 3000 nM.

With `Cc1cc(Cl)cnc1-c1nc(N2CCOC(c3cnn(C)c3)C2)cc2nc(C)n(C)c(=O)c12` (stereo not drawn) [Example 16, 5-(5-chloro-3-methyl-2-pyridinyl)-2,3-dimethyl-7-(2-(1-methyl-1H-pyrazol-4-yl)-4-morpholinyl)pyrido[4,3-d]pyrimidin-4(3H)-one], the Emax entry is “+ (Emax>45 and ≤100)”; the EC50 was 3000 to 100000 nM. `Cc1nc2cc(N3CCO[C@@H](c4cnn(C)c4)C3)nc(-c3ccc(C(F)(F)F)nc3)c2c(=O)n1C` [Example 17, 2,3-dimethyl-7-((2S)-2-(1-methyl-1H-pyrazol-yl)-4-morpholinyl)-5-(6-(trifluoromethyl)-3-pyridinyl)pyrido[4,3-d]pyrimidin-4(3H)-one]: the EC50 fell in the range of 500 to 3000 nM. `Cc1nc2cc(N3CCO[C@@H](c4cnn(C)c4)C3)nc(-c3ccc(Cl)cc3F)c2c(=O)n1C1CCCCC1` [Example 18, 5-(4-chloro-2-fluorophenyl)-3-cyclohexyl-2-methyl-7-((2S)-2-(1-methyl-1H-pyrazol-4-yl)-4-morpholinyl)pyrido[4,3-d]pyrimidin-4(3H)-one]: the Emax result was “++ (Emax>100 and ≤200)”; the EC50 lay in the range of 500 to 3000 nM. Turning to `Cc1nc2cc(N3CCO[C@@H](c4cnn(C)c4)C3)nc(-c3ccc(Cl)cc3F)c2c(=O)n1CC(F)(F)F` [Example 19, 5-(4-chloro-2-fluorophenyl)-2-methyl-7-((2S)-2-(1-methyl-1H-pyrazol-4-yl)-4-morpholinyl)-3-(2,2,2-trifluoroethyl)pyrido[4,3-d]pyrimidin-4(3H)-one], the Emax result was “++++ (Emax>300)” and the EC50 is < 50 nM. `Cc1nc2cc(N3CCO[C@@H](c4cnn(C)c4)C3)nc(-c3ccc(Cl)cc3F)c2c(=O)n1C1CC1` [Example 20, 5-(4-chloro-2-fluorophenyl)-3-cyclopropyl-2-methyl-7-((2S)-2-(1-methyl-1H-pyrazol-4-yl)-4-morpholinyl)pyrido[4,3-d]pyrimidin-4(3H)-one]: the Emax result was “++++ (Emax>300)” and the 50% effective concentration (EC50) is 50 to 500 nM. For `CCCn1c(C)nc2cc(N3CCOC(c4cnn(C)c4)C3)nc(-c3ncc(Cl)cc3F)c2c1=O` (stereo not drawn) [Example 21, 5-(5-chloro-3-fluoro-2-pyridinyl)-2-methyl-7-(2-(1-methyl-1H-pyrazol-4-yl)-4-morpholinyl)-3-propylpyrido-[4,3-d]pyrimidin-4(3H)-one] the same measures were “++++ (Emax>300)” and 50 to 500 nM. Regarding `Cc1nc2cc(N3CCO[C@@H](c4cn[nH]c4)C3)nc(-c3ccc(Cl)cc3F)c2c(=O)n1C` [Example 22, 5-(4-chloro-2-fluorophenyl)-2,3-dimethyl-7-((2S)-2-(1H-pyrazol-4-yl)-4-morpholinyl)pyrido[4,3-d]pyrimidin-4(3H)-one], the Emax entry is recorded as “++++ (Emax>300)” and the EC50 is < 50 nM.

As to `Cc1nc2cc(N3CCOC(C)(c4cnn(C)c4)C3)nc(-c3ccc(Cl)cc3F)c2c(=O)n1C` (stereo not drawn) [Example 31, 5-(4-chloro-2-fluorophenyl)-2,3-dimethyl-7-(2-methyl-2-(1-methyl-1H-pyrazol-4-yl)-4-morpholinyl)pyrido[4,3-d]pyrimidin-4(3H)-one], the Emax result was “++++ (Emax>300)” and the EC50 lay within 3000 to 100000 nM. For `Cc1nc2cc(N3CCOC(C4CCC4)C3)nc(-c3ccc(Cl)cc3F)c2c(=O)n1C` (stereo not drawn) [Example 33, 5-(4-chloro-2-fluorophenyl)-7-(2-cyclobutyl-4-morpholinyl)-2,3-dimethylpyrido[4,3-d]pyrimidin-4(3H)-one], the Emax entry was “++++ (Emax>300)” and the EC50 lay within 500 to 3000 nM. For the compound `Cc1nc2cc(N3CCOC(c4ccnnc4)C3)nc(-c3ccc(Cl)cc3F)c2c(=O)n1C` (stereo not drawn) [Example 50, 5-(4-chloro-2-fluorophenyl)-2,3-dimethyl-7-(2-(4-pyridazinyl)-4-morpholinyl)pyrido[4,3-d]pyrimidin-4(3H)-one], the Emax entry is recorded as “++++ (Emax>300)” and the EC50 is 50 to 500 nM.

As for `Cc1nc2cc(N3CCOC(c4cncnc4)C3)nc(-c3ccc(Cl)cc3F)c2c(=O)n1C` (stereo not drawn) [Example 51, 5-(4-chloro-2-fluorophenyl)-2,3-dimethyl-7-(2-(5-pyrimidinyl)-4-morpholinyl)pyrido[4,3-d]pyrimidin-4(3H)-one], the Emax entry is “+++ (Emax>200 and ≤300)”; the concentration giving a half-maximal response (EC50) was in the range of 50 to 500 nM.
